Measured values published in patent publication US20260373149A1, “MIXED LINEAGE KINASE DOMAIN LIKE PSEUDOKINASE (MLKL) ACTIVATORS” (Trustees of Tufts College, priority 2022, published 2026).
Where a chain is given by its changes, count along the chain named.

Key:
Type in all cases: cell-based
[1] = biological target: T1, M272W mutant of MLKL (Mus musculus, UniProt Q9D2Y4, M272W); assay: Viability of Mlkl-/- MEFs expressing M272W mutant of mouse MLKL-FLAG (CellTiter-Glo); conditions: 5 μM; 50 ng/ml Dox 6 hr, then 24 hr; FIG. 6
T1 sequence (Q9D2Y4 1-472 M272W): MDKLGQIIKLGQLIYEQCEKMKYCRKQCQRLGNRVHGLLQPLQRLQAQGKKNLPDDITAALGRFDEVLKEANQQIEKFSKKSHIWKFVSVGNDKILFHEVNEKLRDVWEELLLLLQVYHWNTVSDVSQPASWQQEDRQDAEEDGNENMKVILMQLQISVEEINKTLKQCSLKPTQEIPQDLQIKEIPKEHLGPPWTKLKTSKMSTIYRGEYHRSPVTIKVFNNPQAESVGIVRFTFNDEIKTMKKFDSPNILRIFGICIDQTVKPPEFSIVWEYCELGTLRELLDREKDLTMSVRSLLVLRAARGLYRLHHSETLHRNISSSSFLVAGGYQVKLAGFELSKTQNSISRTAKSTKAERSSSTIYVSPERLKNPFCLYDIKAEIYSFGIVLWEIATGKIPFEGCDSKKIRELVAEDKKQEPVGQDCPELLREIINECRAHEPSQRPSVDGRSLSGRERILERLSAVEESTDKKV
Procedure: (§1) Plots show cell viability (%) versus MLKL mutant expressed. […] Cells conditionally expressing wild type and mutants of MLKL have been generated. M272W mutant of MLKL is active but predicted not to bind to MLKL activators. S345A/S347A mutant of MLKL lacks RIPK3 phosphorylation sites. Cells were treated with 50 ng/ml of Dox for 6 hr followed by MLKL activators (left panels) or TNFα/IDN6556 (right panels). The latter combination is a canonical inducer of necroptosis through RIPK3 activation. 5 μM ALD-6-85 and SS-1-127 were used in top and bottom panels, respectively.
(§2) The activity of ALD-6-85 was tested in the cells expressing either wild type MLKL or mutant expressing a bulky Trp residue in place of M272 gatekeeper residue. This mutation is expected to disrupt binding of the drug to MLKL. […] To ensure that observed reduction in killing is not due to the intrinsically lower pro-death activity of M272W mutant, cells were also stimulated with TNF+IDN, inducing necroptosis through a canonical TNFR1-RIPK1-RIPK3-MLKL pathway. […] We also generated MEFs expressing S345A, S347A double mutant of mouse MLKL.

[2] = biological target: T2, S345A/S347A mutant of MLKL (Mus musculus, UniProt Q9D2Y4, S345A/S347A); assay: Viability of Mlkl-/- MEFs expressing S345A/S347A mutant of mouse MLKL-FLAG (CellTiter-Glo); conditions: 5 μM; 50 ng/ml Dox 6 hr, then 24 hr; FIG. 6
T2 sequence (Q9D2Y4 1-472 S345A/S347A): T1 sequence (Q9D2Y4 1-472 M272W) with W272M, S345A, S347A
Procedure: as §1, §2

[3] = tested on: transformed mouse embryonic fibroblasts with genetic deletions of RIPK3 and MLKL genes; assay: Viability of transformed mouse embryonic fibroblasts with genetic deletions of RIPK3 and MLKL genes; conditions: MEFs with genetic deletions of RIPK3 and MLKL; FIG. 3
Procedure: Viability of transformed mouse embryonic fibroblasts with genetic deletions of RIPK3 and MLKL genes and treated with SS-1-127 are shown. Affinities of select MLKL activators against recombinant human RIPK1, RIPK3, and MLKL were determined by DiscoveRx.
The compounds described herein are capable of directly activating the downstream executioner of necroptosis, MLKL, thus bypassing a requirement for RIPK3 (FIG. 2).

[4] = biological target: T3, E239Q mutant of mouse MLKL (Mus musculus, UniProt Q9D2Y4, E239Q); assay: Viability of Mlkl-/- MEFs expressing wild type or E239Q mutant of mouse MLKL-FLAG (CellTiter-Glo); conditions: E239Q vs wild type mouse MLKL; 50 ng/ml Dox 6 hr, then compound 24 hr; FIG. 7
T3 construct: expressed in transfected cells; host or cells: Mlkl-/- mouse embryonic fibroblasts (MEFs), lentiviral, doxycycline-inducible
T3 sequence (Q9D2Y4 1-472 E239Q): T1 sequence (Q9D2Y4 1-472 M272W) with E239Q, W272M
Procedure: Mlkl^−/− mouse embryonic fibroblasts (MEFs) were stably infected with lentiviral vector encoding wild type and E239Q mutant of mouse MLKL-FLAG under the control of the Doxocyclin (Dox)-inducible promoter. […] After 24 hr, cell viability at the end of treatment was determined using CellTiter-Glo Viability assay (Promega).

SMILES | Death in cells expressing M272W MLKL compared to wild type [1] | Effect of S345A, S347A double mutation on killing by SS-1-127 [2] | Cell death induced by SS-1-127: dependence on MLKL and RIPK3 [3] | Activity / cell death with E239Q mutation compared to wild type MLKL [4]
CCN(CC)CCOc1ccc(Nc2ncc3cc(-c4ccc(O)c([N+](=O)[O-])c4)c(=O)n(C)c3n2)cc1 [ALD-6-85] | induces reduced death in the cells expressing M272W MLKL compared to wild type protein |  |  | 
CCN(CC)CCOc1ccc(Nc2ncc3cc(-c4ccc(O)c(C#N)c4)c(=O)n(C)c3n2)cc1 [SS-1-127, 5-(2-((4-(2-(Diethylamino)ethoxy)phenyl)amino)-8-methyl-7-oxo-7,8-dihydropyrido[2,3-d]pyrimidin-6-yl)-2-hydroxybenzonitrile] |  | minor effect on killing | dependent on MLKL expression and independent from RIPK3 | much improved activity when combined with E239Q mutation compared to wild type MLKL
